Water solubility experimental and solubility data for 2 molecules are collected here from article PMC13072876 (International Journal of Molecular Sciences, 2026).

This series is described as follows: Water solubility, experimental. The series is classed as physicochemical. The text has this: Table 5 Water solubility of tested compounds experimental [mg/mL] and predicted by the SwissADME web tool. | column: Water Solubility / [mg/mL]

Converted amounts (≈) assume the structure as drawn.

As for `COc1cc2c(c(OC)c1OC)-c1ccc(OC)c(=O)cc1[C@@H](NC(C)=O)CC2` [compound 1, colchicine], the Water solubility experimental (experimental) is 45 mg/mL.
A word on the solubility: it is the concentration that dissolves in the medium under given conditions. A higher solubility goes with a readily soluble substance. Consider `COc1cccc2c1C(=O)c1c(O)c3c(c(O)c1C2=O)C[C@@](O)(C(=O)CO)C[C@@H]3O[C@H]1C[C@H](N)[C@H](O)[C@H](C)O1` [doxorubicin], for which the concentration in solution (water) (solubility) was 50 mg/mL (≈ 92 mM).
